Laboratory results from ChEMBL document CHEMBL4229421 (Bioorg Med Chem Lett, 2018).

Tests used:
Homo sapiens = organism: Homo sapiens; assay: Selectivity ratio of IC50 for human HDAC6 to IC50 for human HDAC1
[1] = biological target: Tyrosine-protein kinase JAK2 (Homo sapiens, UniProt O60674); assay: Inhibition of human JAK2 using poly[Glu:Tyr] (4:1) as substrate in presence of [gamma-33P]ATP
Histone deacetylase 1 = Histone deacetylase 1 (Homo sapiens, UniProt Q13547); assay: Inhibition of human HDAC1 using p53 (379 to 382 residues) derived fluorogenic peptide RHKKAc as substrate
Histone deacetylase 1, sequence (Q13547 whole entry, the tested form may be a part): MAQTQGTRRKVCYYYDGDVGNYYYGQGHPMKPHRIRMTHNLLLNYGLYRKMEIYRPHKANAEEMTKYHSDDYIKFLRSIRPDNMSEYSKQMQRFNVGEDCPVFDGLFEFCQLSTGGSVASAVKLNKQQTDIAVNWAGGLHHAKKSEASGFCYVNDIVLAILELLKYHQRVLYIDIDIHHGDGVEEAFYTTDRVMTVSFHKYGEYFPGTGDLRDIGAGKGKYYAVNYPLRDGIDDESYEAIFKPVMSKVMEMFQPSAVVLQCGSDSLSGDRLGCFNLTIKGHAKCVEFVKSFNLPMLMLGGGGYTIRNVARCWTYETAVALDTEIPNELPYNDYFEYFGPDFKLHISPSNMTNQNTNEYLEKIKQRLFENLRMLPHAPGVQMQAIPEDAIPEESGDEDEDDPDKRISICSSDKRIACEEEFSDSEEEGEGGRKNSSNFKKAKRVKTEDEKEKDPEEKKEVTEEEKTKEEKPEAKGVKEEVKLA

[2] = biological target: T1, Protein deacetylase HDAC6 (Homo sapiens, UniProt Q9UBN7); assay: Inhibition of human HDAC6 using p53 (379 to 382 residues) derived fluorogenic peptide RHKKAc as substrate
T1 sequence (Q9UBN7 whole entry): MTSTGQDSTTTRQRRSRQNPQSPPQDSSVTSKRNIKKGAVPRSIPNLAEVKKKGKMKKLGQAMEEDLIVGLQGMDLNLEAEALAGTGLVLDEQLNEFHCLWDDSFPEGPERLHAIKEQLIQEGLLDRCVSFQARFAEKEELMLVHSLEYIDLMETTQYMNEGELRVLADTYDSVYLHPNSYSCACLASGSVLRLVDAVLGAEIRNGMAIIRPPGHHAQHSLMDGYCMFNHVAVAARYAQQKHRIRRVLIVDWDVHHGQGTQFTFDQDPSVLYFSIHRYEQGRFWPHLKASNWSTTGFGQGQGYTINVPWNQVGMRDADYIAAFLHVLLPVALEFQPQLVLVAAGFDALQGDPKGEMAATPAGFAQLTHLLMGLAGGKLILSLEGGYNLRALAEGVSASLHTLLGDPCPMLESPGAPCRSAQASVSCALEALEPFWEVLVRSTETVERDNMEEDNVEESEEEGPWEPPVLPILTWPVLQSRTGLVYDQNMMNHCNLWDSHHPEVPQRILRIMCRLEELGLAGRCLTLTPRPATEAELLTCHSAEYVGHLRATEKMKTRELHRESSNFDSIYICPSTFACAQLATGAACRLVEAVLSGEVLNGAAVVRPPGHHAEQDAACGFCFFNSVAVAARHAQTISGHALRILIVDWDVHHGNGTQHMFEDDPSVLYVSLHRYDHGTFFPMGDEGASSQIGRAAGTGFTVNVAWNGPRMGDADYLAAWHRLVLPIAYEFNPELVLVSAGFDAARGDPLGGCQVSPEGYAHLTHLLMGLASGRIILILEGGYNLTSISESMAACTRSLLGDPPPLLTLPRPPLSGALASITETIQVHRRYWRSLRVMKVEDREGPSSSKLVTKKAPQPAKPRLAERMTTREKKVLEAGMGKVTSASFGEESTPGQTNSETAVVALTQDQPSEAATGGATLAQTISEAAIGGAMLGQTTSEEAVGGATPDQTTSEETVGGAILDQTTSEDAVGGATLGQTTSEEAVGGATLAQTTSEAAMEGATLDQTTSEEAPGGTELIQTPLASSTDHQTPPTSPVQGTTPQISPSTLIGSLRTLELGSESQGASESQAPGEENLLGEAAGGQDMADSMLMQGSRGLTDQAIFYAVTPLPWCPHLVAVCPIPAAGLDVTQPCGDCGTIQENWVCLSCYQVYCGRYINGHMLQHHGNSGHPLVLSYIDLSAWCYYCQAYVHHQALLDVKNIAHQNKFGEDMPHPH

HCT-116 = assay: Antiproliferative activity against human HCT116 cells; format: functional, cell-based
MDA-MB-231 = assay: Antiproliferative activity against human MDA-MB-231 cells; format: functional, cell-based
PC-3 = assay: Antiproliferative activity against human PC3 cells; format: functional, cell-based
MCF7 = assay: Antiproliferative activity against human MCF7 cells; format: functional, cell-based

Tyrosine-protein kinase JAK2, sequence (O60674 whole entry, the tested form may be a part): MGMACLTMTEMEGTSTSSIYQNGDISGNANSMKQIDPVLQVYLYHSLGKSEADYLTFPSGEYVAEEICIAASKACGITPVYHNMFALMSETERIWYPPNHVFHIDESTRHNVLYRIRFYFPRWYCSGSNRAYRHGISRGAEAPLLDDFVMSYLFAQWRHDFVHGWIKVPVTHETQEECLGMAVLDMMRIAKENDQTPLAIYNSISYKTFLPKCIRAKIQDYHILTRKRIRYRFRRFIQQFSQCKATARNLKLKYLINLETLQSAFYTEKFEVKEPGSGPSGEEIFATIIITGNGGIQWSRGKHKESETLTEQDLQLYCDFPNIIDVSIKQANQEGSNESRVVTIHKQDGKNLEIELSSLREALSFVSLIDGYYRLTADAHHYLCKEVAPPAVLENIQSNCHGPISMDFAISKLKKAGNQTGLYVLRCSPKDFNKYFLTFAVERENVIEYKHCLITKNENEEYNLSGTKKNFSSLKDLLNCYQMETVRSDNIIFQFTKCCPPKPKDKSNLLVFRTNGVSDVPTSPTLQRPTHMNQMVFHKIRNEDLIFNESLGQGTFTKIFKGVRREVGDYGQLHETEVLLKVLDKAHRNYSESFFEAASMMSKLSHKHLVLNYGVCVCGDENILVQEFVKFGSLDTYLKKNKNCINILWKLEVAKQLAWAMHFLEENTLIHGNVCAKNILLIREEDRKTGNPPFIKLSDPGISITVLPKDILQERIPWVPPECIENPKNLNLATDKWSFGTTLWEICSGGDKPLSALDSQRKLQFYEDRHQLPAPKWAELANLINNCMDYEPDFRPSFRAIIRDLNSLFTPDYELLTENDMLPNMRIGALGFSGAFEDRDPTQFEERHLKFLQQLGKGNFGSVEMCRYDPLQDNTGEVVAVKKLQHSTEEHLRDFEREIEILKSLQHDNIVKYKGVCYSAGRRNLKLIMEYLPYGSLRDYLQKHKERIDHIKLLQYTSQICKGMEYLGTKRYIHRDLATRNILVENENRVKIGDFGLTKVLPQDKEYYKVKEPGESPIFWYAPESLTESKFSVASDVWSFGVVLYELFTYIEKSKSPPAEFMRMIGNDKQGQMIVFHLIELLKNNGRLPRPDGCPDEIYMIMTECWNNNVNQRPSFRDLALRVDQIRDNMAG

SMILES	Ratio IC50 (Homo sapiens)	IC50 [1] [nM]	IC50 (Histone deacetylase 1) [nM]	IC50 [2] [nM]	IC50 (HCT-116) [nM]	IC50 (MDA-MB-231) [nM]	IC50 (PC-3) [nM]	IC50 (MCF7) [nM]
O=C(CCCCCCC(=O)Nc1ccc(Nc2nc(-c3cnn(CC4CCCC4)c3)c3cc[nH]c3n2)cc1)NO	300	3	2710	9.6				
N#CC[C@H](C1CCCC1)n1cc(-c2ncnc3[nH]ccc23)cn1 [RUXOLITINIB]					> 10000			
O=C(CCCCCCOc1ccc2cc1COC/C=C/COCc1cccc(c1)-c1ccnc(n1)N2)NO					> 10000	> 10000	> 10000	> 10000
CS(=O)(=O)CCn1cc(-c2nc(Nc3ccc(NC(=O)CCCCCCC(=O)NO)cc3)nc3[nH]ccc23)cn1		7.7	101	2.3	> 100000	> 100000	> 100000	> 100000
O=C(CCCCCCC(=O)Nc1ccc(Nc2nc(-c3cn[nH]c3)c3cc[nH]c3n2)cc1)NO		0.96	2	0.2	14400	11800	20100	15600

The next lines start with the values.

Ratio IC50 (Homo sapiens)	IC50 [1] [nM]	IC50 (Histone deacetylase 1) [nM]	IC50 [2] [nM]	IC50 (HCT-116) [nM]	IC50 (MDA-MB-231) [nM]	IC50 (PC-3) [nM]	IC50 (MCF7) [nM]	SMILES
	21	1320	5.2					O=C(CCCCCCC(=O)Nc1ccc(Nc2nc(-c3cnn(CCCCCOc4ccccc4)c3)c3cc[nH]c3n2)cc1)NO
		45	0.85					N#CCCn1cc(-c2nc(Nc3ccc(NC(=O)CCCCCCC(=O)NO)cc3)nc3[nH]ccc23)cn1
> 300	0.041	83	0.25	4100	7400	7700	4500	C=CCCn1cc(-c2nc(Nc3ccc(NC(=O)CCCCCCC(=O)NO)cc3)nc3[nH]ccc23)cn1
	2.3	63	2.1	9400	13300	35000	12200	COCCn1cc(-c2nc(Nc3ccc(NC(=O)CCCCCCC(=O)NO)cc3)nc3[nH]ccc23)cn1
	19	2000	15.8					O=C(CCCCCCC(=O)Nc1ccc(Nc2nc(-c3cnn(CCCCCCOc4ccccc4)c3)c3cc[nH]c3n2)cc1)NO
	0.15	44	1.6	6500	9100	13400	8200	CCCn1cc(-c2nc(Nc3ccc(NC(=O)CCCCCCC(=O)NO)cc3)nc3[nH]ccc23)cn1
	40	1720	7					O=C(CCCCCCC(=O)Nc1ccc(Nc2nc(-c3cnn(CCCCOc4ccccc4)c3)c3cc[nH]c3n2)cc1)NO
